The numbers were not newly measured in US20090258897A1, “Substituted benzimidazoles” (Auspex Pharmaceuticals, Inc., priority 2008, published 2009), which cites them from elsewhere.

The series has as its target T1, gastric H^+, K^+-ATPase (Homo sapiens, UniProt P20648).
T1 construct: host or cells: healthy volunteers (in vivo, endogenous gastric enzyme)

Where [1] appears, read: healthy volunteers, even after stoppage of the drug.

T1 sequence (P20648 whole entry): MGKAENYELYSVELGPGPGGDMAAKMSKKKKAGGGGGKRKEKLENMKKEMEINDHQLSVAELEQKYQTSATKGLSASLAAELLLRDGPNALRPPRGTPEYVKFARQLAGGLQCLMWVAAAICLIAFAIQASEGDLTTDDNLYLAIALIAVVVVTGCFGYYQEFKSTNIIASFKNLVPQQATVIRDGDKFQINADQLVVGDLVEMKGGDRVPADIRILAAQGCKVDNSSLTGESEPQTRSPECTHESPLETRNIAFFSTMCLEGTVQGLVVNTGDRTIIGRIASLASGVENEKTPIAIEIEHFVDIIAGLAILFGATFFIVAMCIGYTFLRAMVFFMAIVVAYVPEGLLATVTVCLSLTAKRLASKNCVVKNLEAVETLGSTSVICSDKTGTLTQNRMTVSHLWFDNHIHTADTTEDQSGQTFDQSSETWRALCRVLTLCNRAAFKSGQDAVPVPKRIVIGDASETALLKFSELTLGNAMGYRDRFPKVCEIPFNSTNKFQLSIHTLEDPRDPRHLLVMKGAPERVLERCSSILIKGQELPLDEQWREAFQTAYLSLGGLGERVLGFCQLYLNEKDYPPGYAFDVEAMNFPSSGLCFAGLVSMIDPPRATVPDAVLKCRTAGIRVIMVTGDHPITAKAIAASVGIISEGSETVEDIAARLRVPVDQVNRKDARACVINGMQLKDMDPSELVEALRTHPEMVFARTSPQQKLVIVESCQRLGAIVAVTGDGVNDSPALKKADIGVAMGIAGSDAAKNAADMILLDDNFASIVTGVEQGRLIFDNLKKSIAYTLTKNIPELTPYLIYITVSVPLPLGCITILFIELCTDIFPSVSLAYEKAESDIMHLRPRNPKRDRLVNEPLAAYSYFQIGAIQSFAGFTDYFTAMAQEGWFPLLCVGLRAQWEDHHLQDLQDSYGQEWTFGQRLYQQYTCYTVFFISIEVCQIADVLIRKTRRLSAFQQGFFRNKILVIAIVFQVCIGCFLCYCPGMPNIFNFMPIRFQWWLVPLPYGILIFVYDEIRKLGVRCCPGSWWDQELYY
T1 sequence (P51164 whole entry partner): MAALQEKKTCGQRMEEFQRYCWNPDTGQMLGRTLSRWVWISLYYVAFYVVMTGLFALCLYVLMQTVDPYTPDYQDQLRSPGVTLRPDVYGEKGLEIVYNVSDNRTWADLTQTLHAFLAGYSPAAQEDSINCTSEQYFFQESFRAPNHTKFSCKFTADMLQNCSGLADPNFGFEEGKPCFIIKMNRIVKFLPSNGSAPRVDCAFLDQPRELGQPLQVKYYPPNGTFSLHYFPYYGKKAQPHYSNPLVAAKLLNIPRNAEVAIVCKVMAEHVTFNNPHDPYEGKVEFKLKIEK

As for `COc1ccc2[nH]c([S+]([O-])Cc3ncc(C)c(OC)c3C)nc2n1` (stereo not drawn) [tenatoprazole, 5-methoxy-2-(4-methoxy-3,5-dimethyl-pyridin-2-ylmethane-sulfinyl)-1H-imidazo[4,5-b]pyridine], the “potency compared to other proton pump inhibitors (PPIs) such as esomeprazole” value (clinical trials) is reported as “improved potency”. Also, under setting [1], the “duration of acid suppression as compared with other PPIs” value is listed as “prolonged duration of acid suppression” and the “nocturnal acid breakthrough as compared with other PPIs” value is “shorter nocturnal acid breakthrough”.
